Data set [1] relates to HCV (1b) subgenomic replicon. In kind it is cell-based.
For data set [2], the system named is Coxsackie A strains A7 or A21. In words: organism not typed. In kind it is cell-based. Particulars: MRC5, read-out: EC50 Coxsackie A.
A further data set has as its system panel of RNA viruses. In kind it is cell-based.
The subject of a further data set is replicon cells. The conditions noted are these: human.
The subject of the next data set is cancer cell lines. Particulars: cited from earlier work.
The conditions of data set [3]: pH <7; cited from earlier work.

Structures are written as SMILES.

Take `CC(C)(C)C(=O)SCCOP(=O)(OCCSC(=O)C(C)(C)C)OC[C@H]1O[C@@](C)(c2ccc3c(N)ncnn23)[C@H](O)[C@@H]1O` [Compound 9b]: in data set [1], the “replicon activity compared to the parent nucleosides (in words)” value is listed as “markedly enhanced replicon activity” and the “selectivity index (CC50/EC50)” value was “less than 10 fold”.

As to `CC(C)(C)C(=O)SCCOP(=O)(OCCSC(=O)C(C)(C)C)OC[C@H]1O[C@@](C#N)(c2ccc3c(N)ncnn23)[C@H](O)[C@@H]1O` [Compound 9a], the “replicon activity compared to the parent nucleosides (in words)” value in data set [1] was “markedly enhanced replicon activity”.

As a reminder, the EC50 is the concentration needed to bring the measured effect to its halfway point. The term CC50 denotes the concentration at which the toxic effect on the cells reaches its halfway point. Take `C[C@@]1(c2ccc3c(N)ncnn23)O[C@H](CO)[C@@H](O)[C@H]1O` [Compound 3b]: the EC50 in data set [2] is more than 30 µM. For the same compound, the “antiviral activity against panel of RNA viruses (in words)” value (“antiviral activity against panel” below) in the data set with panel of RNA viruses was “reduced potency and a narrower spectrum of antiviral activity”. Further, the CC50 with replicon cells is more than 89 µM.

As for `C#C[C@@]1(c2ccc3c(N)ncnn23)O[C@H](COP(=O)(OCCSC(=O)C(C)(C)C)OCCSC(=O)C(C)(C)C)[C@@H](O)[C@H]1O` [Compound 9d], the “selectivity index (CC50/EC50)” value in data set [1] is recorded as “less than 10 fold”.

For `N#C[C@@]1(c2ccc3c(N)ncnn23)O[C@H](CO)[C@@H](O)[C@H]1O` [Compound 3a], the EC50 in data set [2] is more than 30 µM. Besides, the “antiviral activity against panel” value in the data set with panel of RNA viruses was “broader spectrum activity”.

With `Nc1ncnc2c1ccn2[C@@H]1O[C@H](CO)[C@@H](O)[C@H]1O` [Compound 1, 7-Deazaadenosine], the “cytotoxicity (in words)” value with cancer cell lines is “cytotoxic”.

In the case of `C=C[C@@]1(c2ccc3c(N)ncnn23)O[C@H](COP(=O)(OCCSC(=O)C(C)(C)C)OCCSC(=O)C(C)(C)C)[C@@H](O)[C@H]1O` [Compound 9c], the “selectivity index (CC50/EC50)” value in data set [1] is reported as “less than 10 fold”.

For the compound `C=C[C@@]1(c2ccc3c(N)ncnn23)O[C@H](CO)[C@@H](O)[C@H]1O` [Compound 3c], the EC50 in data set [2] is more than 30 µM. In the data set on panel of RNA viruses, the “antiviral activity against panel” value is “reduced potency and a narrower spectrum of antiviral activity”.

As to `C#C[C@@]1(c2ccc3c(N)ncnn23)O[C@H](CO)[C@@H](O)[C@H]1O` [Compound 3d], the EC50 in data set [2] was more than 30 µM. Besides, in the data set on panel of RNA viruses, the “antiviral activity against panel” value is listed as “no activity”.

As for `C[C@@]1(n2cnc3c(N)ncnc32)O[C@H](CO)[C@@H](O)[C@H]1O` [1′-C-Me adenosine], the “stability in aqueous solutions” value in data set [3] is given as “rapidly degraded”.
